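Dose response: 5 concentrations. Exposure: 48 h. Format: 96-well plates. Endpoint: linear interpolation; highest concentration if not reached. Abbreviation: GI50, concentration required for 50% inhibition of growth. TGI is the concentration that stops growth completely.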
Assays:
Experiment in all cases: NCI tumour cell line growth inhibition, 48 h
RXF-631 renal = test system: RXF-631 renal
HOP-18 NSCLC = test system: HOP-18 NSCLC
SNB-78 CNS = test system: SNB-78 CNS
HS 578T breast = test system: HS 578T breast
786-0 renal = test system: 786-0 renal
BT-549 breast = test system: BT-549 breast
SN12K1 renal = test system: SN12K1 renal
P388/ADR leukemia = test system: P388/ADR leukemia
P388 leukemia = test system: P388 leukemia

| Structure (SMILES) | TGI (HOP-18 NSCLC) [µM] | TGI (SNB-78 CNS) [µM] | TGI (HS 578T breast) [µM] | TGI (786-0 renal) [µM] | TGI (BT-549 breast) [µM] | also measured |
| --- | --- | --- | --- | --- | --- | --- |
| CC1=C[C@]2(CC(C)C3C(CC4(C)C5CCC6C(C)(C)C(=O)CC[C@@]67C[C@@]57CC[C@]34C)O2)OC1=O (stereo partly specified) | > 100 | 71.9 | – | – | – | TGI (RXF-631 renal): 30.5 µM |
| CCOc1ccc(/C=C/[N+](=O)[O-])cc1 | – | – | > 100 | – | – | GI50 (HS 578T breast): 35.3 µM |
| O=C(Nc1ccc(Cl)cc1)/C(Cc1cccc[n+]1[O-])=N\Nc1ccc([N+](=O)[O-])cc1[N+](=O)[O-] | – | > 100 | – | > 100 | – | TGI (RXF-631 renal): > 100 µM |
| CN1C2C=C(c3ccccc3)CC1CC2 (stereo unspecified) | > 100 | – | – | > 100 | – | – |
| CCOc1ccc2c(ccc(/C=C\c3cc(C)c4cccnc4c3O)[n+]2C)c1 | 7.49 | – | > 100 | 29.3 | 38.1 | – |
| Nc1ncnc2c1ncn2C1CCC(CO)O1 (stereo unspecified) | > 100 | > 100 | – | – | – | TGI (SN12K1 renal): > 69.5 µM; TGI (P388/ADR leukemia): > 77.4 µM; TGI (P388 leukemia): > 100 µM |
| CO/N=C1/c2sccc2[C@H](NC(=O)C(F)(F)F)[C@@H]1O | – | – | > 100 | – | > 100 | – |
| O=C1Nc2ccccc2Nc2nc3cccccc-3c21 | – | > 100 | – | > 100 | – | – |
| COc1ccc(/C=N/NC(=O)NCCCN(C)C)cc1 | > 100 | > 100 | – | – | – | – |
| O=C(Nc1nc2ccc([N+](=O)[O-])cc2[n+]([O-])n1)C(F)(F)F | – | – | – | > 100 | > 100 | – |
| [C-]#[O+].[Cl][Sn]([Cl])[Cl].[Cl][Sn]([Cl])[Cl].[Pt].c1ccncc1 | – | – | – | – | – | GI50 (SN12K1 renal): > 75.6 µM; TGI (SN12K1 renal): > 100 µM; GI50 (P388/ADR leukemia): 35.4 µM; TGI (P388/ADR leukemia): > 100 µM; GI50 (P388 leukemia): 33.4 µM; TGI (P388 leukemia): > 100 µM |
| c1ccc2c(c1)nc1n2CSC1 | > 100 | > 100 | – | – | – | TGI (RXF-631 renal): > 100 µM |
| CN1CCN(Cc2ccc(NC(=O)c3ccc(C#N)c(C#Cc4cnc(N)c5ncccc45)c3)cc2C(F)(F)F)CC1 | – | – | – | – | 41.9 | GI50 (BT-549 breast): 12.7 µM |
| CC(/C=C/c1ccc([N+](=O)[O-])o1)=N/N1CC(CN2CCOCC2)OC1=O (stereo unspecified) | – | – | > 100 | > 100 | 24.2 | – |
| CC(C)=CCc1c(C)cc2cc3c(c(O)c2c1O)C(O)=CC(=O)C3(CC=C(C)C)C/C=C(\C)CO (stereo unspecified) | 35.3 | – | – | – | – | TGI (SN12K1 renal): 62 µM; TGI (P388/ADR leukemia): 80 µM; TGI (P388 leukemia): 101 µM |
| COc1cc2c3c(n(CCN(C)C)c(=O)c2cc1OC)-c1cc2c(cc1C3=O)OCO2 | – | – | > 100 | > 100 | > 100 | GI50 (HS 578T breast): > 84.9 µM; GI50 (BT-549 breast): > 47.7 µM |
| Cc1nc2ccccc2c(=O)n1CC(=O)O | > 100 | > 100 | – | – | – | TGI (SN12K1 renal): > 100 µM; TGI (P388/ADR leukemia): > 100 µM; TGI (P388 leukemia): > 100 µM |
| O=C(O)c1cc(=O)[nH]c(=S)[nH]1 | – | – | > 100 | > 100 | > 100 | – |
| CC1(C)CCc2cc3c(-c4ccccc4)cc(=O)oc3cc2O1 | > 100 | > 100 | – | – | – | TGI (RXF-631 renal): > 100 µM |
| CCCCN(CCCC)CCCCNc1c(C)cnc2cc(Cl)ccc12 | > 100 | > 100 | – | 32.1 | – | TGI (RXF-631 renal): 33.5 µM |
| CCOP(=O)(OCC)C(Cc1ccc(OC)c(OC)c1)N=C(c1ccccc1)c1ccccc1 (stereo unspecified) | – | – | – | – | > 100 | – |
| Cc1ccc(S(=O)(=O)Oc2cc(S(=O)(=O)O)cc3cc(S(=O)(=O)O)cc(N)c23)cc1 | – | – | > 100 | > 100 | > 100 | – |
| CCN(CC)CCCC(Nc1c2ccc(Cl)cc2nc2ccc(OC)cc12)c1ccc(F)cc1 (stereo unspecified) | – | – | 4.17 | – | 26.4 | GI50 (HS 578T breast): 1.69 µM; GI50 (BT-549 breast): 12.8 µM |
| Cc1cccc2c(N)c3cccc(C(=O)NCCN(C)C)c3nc12 | – | – | – | – | 4.16 | – |
| Cc1ccc(/C(=C/C=C(C#N)C#N)Sc2cc(Cl)ccc2Cl)cc1 | – | – | 9.23 | 5.01 | – | – |

From PubChem BioAssay (NCI)
